Measurements published in patent US20250326739A1, “CD38 MODULATORS AND USES THEREOF” (Aeovian Pharmaceuticals, Inc., priority 2022, published 2025).
Where a name gives a salt, the structure may show the parent alone.

What was measured:
[1] = molecular target: mouse CD38 (Mus musculus (Mouse), UniProt P56528); assay: NAD+ cyclase activity assay with mouse recombinant CD38 protein; assay type: biochemical; settings: 0.6 nM mouse CD38, 15.8 μM e-NAD substrate, fluorescence read-out
Experimental: (§1) Example 5: NAD^+ Cydase Activity Assay with Human or Mouse Recombinant CD38 Protein
(§2) The following assay was used to determine the ability of compounds of the invention to inhibit the hydrolysis of NAD^+ by the human or mouse enzyme, CD38.
(§3) Reaction buffer: 40 mM HEPES/NaOH pH 7.5, 250 mM sucrose, 0.01% Tween
(§4) Final concentrations: 0.6 nM mouse CD38 (4947-AC, Bio-Techne GmbH) 1.9 nM human CD38 (AVI2404, Bio-Techne GmbH)
(§5) Substrate: 15.8 μM Nicotinamide 1,N6-ethenoadenine dinucleotide (E-NAD)
(§6) Read-out: Fluorescence intensity (extinction 300 nm/emission 410 nm)
(§7) Required reaction buffer, required CD38 concentration in reaction buffer and required e-NAD concentration in reaction buffer were prepared. Thereafter, 8 μL of CD38 in reaction buffer were added to High Control and compound concentration wells in 384 well plate (Corning #4514, 384 well, nonbinding surface, low volume, round bottom) and 8 μL of reaction buffer to Low Control. Compound dilutions were transferred via pintool technology that transfers 42.5 nL compound dilutions (12-point dose-response with factor three dilutions in 100% DMSO) well-to-well. Plate was subsequently shaken for 15 s at 1450 rpm and sealed for incubation for 30 min at room temperature. Thereafter, 2 μL of e-NAD in reaction buffer were added with Integra Voyager. After shaking for 15 s at 1450 rpm, plate was sealed, and assay signal was measured continuously with PHERAstar® fluorescence intensity module (extinction 300 nm/emission 410 nm).
(§8) Dose-response curves were constructed using twelve-point factor three dilutions in triplicates per plate. High control (full enzyme activity) was set to assay signal of CD38 and e-NAD in presence of vehicle (DMSO) and Low control (full enzyme inhibition) was set to assay signal of e-NAD and vehicle (DMSO) in absence of CD38. For data analysis, fluorescent signal of traces corresponding to each compound concentration and High and Low control was monitored over time. Each run, High Control (full enzyme activity) was fitted to Linear equation via GraphPad Prism to determine CD38 activity from the slope and determine the time interval of linear phase of reaction to account for minor fluctuations. Thereafter, slopes of all compound concentrations were determined via fitting to same linear equation (GraphPad Prism) over the same time interval as determined for High control. Percentage inhibition was calculated via normalization to High and Low Control via the equation: %−inhibition=100*(1−((Sample−Low control)/(High control−Low control))) Half maximal inhibitory concentration (IC50) values are yielded from the inflection point of the corresponding curve by fitting of resulting percentage inhibition values to standard equation (4 Parameter Logistic Model or Sigmoidal Dose-Response Model) via Excel Fit. Unless otherwise stated, fitting of curves was fixed to 100%-inhibition and unlocked for 0%-inhibition.

[2] = molecular target: human CD38 (Homo sapiens (Human), UniProt P28907); assay: NAD+ cyclase activity assay with human recombinant CD38 protein; assay type: biochemical; settings: 1.9 nM human CD38, 15.8 μM e-NAD substrate, fluorescence read-out
Chain of human CD38 (P28907 whole entry): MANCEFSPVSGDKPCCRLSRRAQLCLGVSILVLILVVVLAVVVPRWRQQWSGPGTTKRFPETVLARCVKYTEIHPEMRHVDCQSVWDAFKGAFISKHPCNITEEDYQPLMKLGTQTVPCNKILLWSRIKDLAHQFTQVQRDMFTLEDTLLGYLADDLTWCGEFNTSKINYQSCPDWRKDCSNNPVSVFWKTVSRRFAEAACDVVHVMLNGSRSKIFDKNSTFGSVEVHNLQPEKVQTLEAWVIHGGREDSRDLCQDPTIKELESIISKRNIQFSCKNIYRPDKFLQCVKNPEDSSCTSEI
Experimental: as §1, §2, §3, §4, §5, §6, §7, §8

Chain of mouse CD38 (P56528 whole entry): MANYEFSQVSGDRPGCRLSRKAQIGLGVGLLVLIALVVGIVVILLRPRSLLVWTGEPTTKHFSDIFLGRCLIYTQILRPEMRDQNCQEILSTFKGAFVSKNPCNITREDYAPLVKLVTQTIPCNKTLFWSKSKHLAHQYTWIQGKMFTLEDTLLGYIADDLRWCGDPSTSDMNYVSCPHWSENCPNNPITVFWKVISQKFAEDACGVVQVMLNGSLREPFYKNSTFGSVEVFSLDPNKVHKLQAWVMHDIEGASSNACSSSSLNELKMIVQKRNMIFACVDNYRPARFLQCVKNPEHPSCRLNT

SMILES	IC50 [1] [nM]	IC50 [2] [nM]
Cc1cc(C(=O)N[C@@H]2CCCN(C(=O)OC(C)(C)C)C2)nc(-n2ccnc2)c1 [Compound 49A, tert-Butyl (R)-3-(6-(1H-imidazol-1-yl)-4-methylpicolinamido)piperidine-1-carboxylate]	1 to 10	30 to 100
Cc1cc(C(=O)NC2CCCCCC2)nc(-n2ccnc2)c1 [Compound 34A, N-Cycloheptyl-6-(1H-imidazol-1-yl)-4-methylpicolinamide]	1 to 10	< 30
Cc1cc(C(=O)N[C@H]2CCNC2)nc(-n2ccnc2)c1 [Compound 41A, (S)-6-(1H-Imidazol-1-yl)-4-methyl-N-(pyrrolidin-3-yl)picolinamide hydrochloride]	> 100	> 1000
Cc1cc(C(=O)N[C@@H]2CCCN(C)C2)nc(-n2ccnc2)c1 [Compound 59A, (R)-6-(1H-Imidazol-1-yl)-4-methyl-N-(1-methylpiperidin-3-yl)picolinamide]	10 to 100	> 1000
Cc1cc(C(=O)NC2C3COCC32)nc(-n2ccnc2)c1 (stereo not shown) [Compound 31A, N-(3-Oxabicyclo[3.1.0]hexan-6-yl)-6-(1H-imidazol-1-yl)-4-methylpicolinamide]	1 to 10	30 to 100
Cc1cc(C(=O)N[C@H]2CCOC2)nc(-n2ccnc2)c1 [Compound 38A, (S)-6-(1H-Imidazol-1-yl)-4-methyl-N-(tetrahydrofuran-3-yl)picolinamide]	1 to 10	100 to 1000
CS(=O)(=O)N1CCC(NC(=O)c2ccnc(-n3ccnc3)n2)CC1 [Compound 73A, 2-(1H-Imidazol-1-yl)-N-(1-(methylsulfonyl)piperidin-4-yl)pyrimidine-4-carboxamide]	1 to 10	< 30
Cc1cc(C(=O)N[C@H]2CCCNC2)nc(-n2ccnc2)c1 [Compound 48A, (S)-6-(1H-Imidazol-1-yl)-4-methyl-N-(piperidin-3-yl)picolinamide dihydrochloride]	10 to 100	> 1000
O=C(N[C@@H]1CCS(=O)(=O)C1)c1ccnc(-n2ccnc2)n1 [Compound 74A, (R)—N-(1,1-Dioxidotetrahydrothiophen-3-yl)-2-(1H-imidazol-1-yl)pyrimidine-4-carboxamide]	1 to 10	< 30
O=C(N[C@@H]1CCCOC1)c1cc(C(F)(F)F)cc(-n2ccnc2)n1 [Compound 62A, (R)-6-(1H-imidazol-1-yl)-N-(tetrahydro-2H-pyran-3-yl)-4-(trifluoromethyl)picolinamide]	1 to 10	< 30
Cc1cc(C(=O)N[C@@H]2CCCOC2)nc(-n2ccnc2)c1 [Compound 44A, (R)-6-(1H-Imidazol-1-yl)-4-methyl-N-(tetrahydro-2H-pyran-3-yl)picolinamide]	< 1	< 30
Cc1cc(C(=O)N[C@H]2CCCN(C(=O)OC(C)(C)C)C2)nc(-n2ccnc2)c1 [Compound 47A, tert-Butyl (S)-3-(6-(1H-imidazol-1-yl)-4-methylpicolinamido)piperidine-1-carboxylate]	1 to 10	100 to 1000
Cc1cc(C(=O)N[C@H]2CCCNC2=O)nc(-n2ccnc2)c1 [Compound 60A, (S)-6-(1H-Imidazol-1-yl)-4-methyl-N-(2-oxopiperidin-3-yl)picolinamide]	1 to 10	100 to 1000
Cc1cc(C(=O)N[C@H]2CCS(=O)(=O)C2)nc(-n2ccnc2)c1 [Compound 55A, (S)—N-(1,1-Dioxidotetrahydrothiophen-3-yl)-6-(1H-imidazol-1-yl)-4-methylpicolinamide]	1 to 10	100 to 1000
Cc1cc(C(=O)NC2COCC(F)(F)C2)nc(-n2ccnc2)c1 (stereo not shown) [Compound 26A, N-(5,5-Difluorotetrahydro-2H-pyran-3-yl)-6-(1H-imidazol-1-yl)-4-methylpicolinamide]	1 to 10	30 to 100
Cc1cc(C(=O)N[C@H]2CCCN(S(C)(=O)=O)C2)nc(-n2ccnc2)c1 [Compound 50A, (S)-6-(1H-Imidazol-1-yl)-4-methyl-N-(1-(methylsulfonyl)piperidin-3-yl)picolinamide]	1 to 10	100 to 1000
O=C(N[C@@H]1CCCOC1)c1ccnc(-n2ccnc2)n1 [Compound 80A, (R)-2-(1H-Imidazol-1-yl)-N-(tetrahydro-2H-pyran-3-yl)pyrimidine-4-carboxamide]	1 to 10	< 30
Cc1cc(C(=O)NC2CCN(S(=O)(=O)C3COC3)CC2)nc(-n2ccnc2)c1 [Compound 87A, 6-(1H-Imidazol-1-yl)-4-methyl-N-(1-(oxetan-3-ylsulfonyl)piperidin-4-yl)picolinamide]	1 to 10	< 30
CS(=O)(=O)N1CCC(NC(=O)c2cc(C(F)(F)F)nc(-n3ccnc3)n2)CC1 [Compound 75A, 2-(1H-Imidazol-1-yl)-N-(1-(methylsulfonyl)piperidin-4-yl)-6-(trifluoromethyl)pyrimidine-4-carboxamide]	1 to 10	30 to 100
CS(=O)(=O)N1CCC(NC(=O)c2cc(C(F)(F)F)cc(-n3ccnc3)n2)CC1 [Compound 82A, 6-(1H-Imidazol-1-yl)-N-(1-(methylsulfonyl)piperidin-4-yl)-4-(trifluoromethyl)picolinamide]	1 to 10	< 30
